Here are results for eight compounds from ChEMBL document CHEMBL1201862, “PubChem BioAssay data set” (2004).

One assay has as its target Vasopressin V1b receptor (Homo sapiens, UniProt P47901). As to the kind of experiment: Late-stage results from the probe development effort to identify antagonists of arginine vasopressin receptor 1a (AVPR1a): fluorescence-based cell-based dose response AVPR1b inhibition counterscreen assay. It counts as functional.
A short description of assay [1]: Late-stage results from the probe development effort to identify antagonists of arginine vasopressin receptor 1a (AVPR1a): fluorescence-based cell-based dose response OXTR inhibition counterscreen assay. In kind it is functional.
The nature of assay [2]: Late-stage results from the probe development effort to identify antagonists of arginine vasopressin receptor 1a (AVPR1a): fluorescence-based cell-based dose response AVPR1a inhibition assay. It counts as functional.
A further assay concerns the target Vasopressin V2 receptor (Homo sapiens, UniProt P30518). As to the kind of experiment: Late-stage results from the probe development effort to identify antagonists of arginine vasopressin receptor 1a (AVPR1a): fluorescence-based cell-based dose response AVPR2 inhibition counterscreen assay. It counts as functional.
The nature of assay [3]: Late-stage results from the probe development effort to identify antagonists of arginine vasopressin receptor 1a (AVPR1a): luminescence-based cell-based dose response counterscreen assay to determine cytotoxicity of the test compound. It counts as functional.
Assay [4] can be described thus: viability loss in A549 lung cells – cell-based, 24 h, CellTiter-Glo luminescence, cherry-picks, cytotoxicity control, dose response (AID 1053115). In kind it is functional. Particulars: A549, 24 h.
For assay [5], the target named is Muscarinic acetylcholine receptor M5 (Homo sapiens, UniProt P08912). Description: inhibition of ACh-evoked human M5 signalling – cell-based, CHO-K1 hM5, Fluo-4 calcium flux, ACh EC80, dose response (AID 743110). In kind it is functional.
Chain of Muscarinic acetylcholine receptor M5 (Homo sapiens, UniProt P08912) (P08912 whole entry): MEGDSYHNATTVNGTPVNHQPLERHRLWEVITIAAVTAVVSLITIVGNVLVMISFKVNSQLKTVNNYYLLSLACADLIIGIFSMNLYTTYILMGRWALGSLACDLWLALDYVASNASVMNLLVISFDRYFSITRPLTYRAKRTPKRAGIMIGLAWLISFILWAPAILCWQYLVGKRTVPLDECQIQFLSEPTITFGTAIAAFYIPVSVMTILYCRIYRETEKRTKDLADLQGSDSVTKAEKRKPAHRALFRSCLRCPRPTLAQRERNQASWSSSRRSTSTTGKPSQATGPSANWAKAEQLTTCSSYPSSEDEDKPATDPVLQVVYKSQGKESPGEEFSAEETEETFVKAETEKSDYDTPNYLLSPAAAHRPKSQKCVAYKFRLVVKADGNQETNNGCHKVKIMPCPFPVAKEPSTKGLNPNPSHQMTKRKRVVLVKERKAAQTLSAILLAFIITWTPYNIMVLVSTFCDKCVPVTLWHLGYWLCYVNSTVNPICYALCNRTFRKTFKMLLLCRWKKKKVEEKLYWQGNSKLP
Assay [6] has as its target Muscarinic acetylcholine receptor M5 (Rattus norvegicus, UniProt P08911). Description: Discovery of Novel Antagonists of Muscarinic Receptor M5: Counterscreen against RAT M5. In kind it is functional.
Assay [7] can be described thus: Dd2 parasite growth inhibition in erythrocytes – SYBR Green, dry powder samples, set 9, dose response (AID 1159568). In kind it is functional, cell-based.
Assay [8] is described as follows: antimalarial activity against Dd2 parasites – SYBR Green fluorescence, erythrocytes, dry powder, set 2, dose response (AID 1159574). It counts as functional, cell-based.
Assay [9] deals with G-protein coupled receptor 183 (Homo sapiens, UniProt P32249). Description: SAR confirmation of small molecule antagonists of the EBI2 receptor via a luminescent beta-arrestin assa. In kind it is functional.
Chain of G-protein coupled receptor 183 (P32249 whole entry): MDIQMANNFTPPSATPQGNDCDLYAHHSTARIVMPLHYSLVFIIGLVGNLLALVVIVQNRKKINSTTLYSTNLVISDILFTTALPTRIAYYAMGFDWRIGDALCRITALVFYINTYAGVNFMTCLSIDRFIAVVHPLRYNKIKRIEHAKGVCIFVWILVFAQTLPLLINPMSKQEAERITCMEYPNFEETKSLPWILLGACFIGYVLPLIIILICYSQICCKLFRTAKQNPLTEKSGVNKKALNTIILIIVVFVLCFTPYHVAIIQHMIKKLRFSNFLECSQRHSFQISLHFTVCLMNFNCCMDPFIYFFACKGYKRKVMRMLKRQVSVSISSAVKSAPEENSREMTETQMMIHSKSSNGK
The target of assay [10] is RNA-editing ligase 1, mitochondrial (Trypanosoma brucei brucei, UniProt P86926). Description: inhibition of trypanosome RNA editing ligase – biochemical, fluorescence, Trypanosoma brucei, dose response (AID 1117295). It counts as functional.
Chain of RNA-editing ligase 1, mitochondrial (P86926 whole entry): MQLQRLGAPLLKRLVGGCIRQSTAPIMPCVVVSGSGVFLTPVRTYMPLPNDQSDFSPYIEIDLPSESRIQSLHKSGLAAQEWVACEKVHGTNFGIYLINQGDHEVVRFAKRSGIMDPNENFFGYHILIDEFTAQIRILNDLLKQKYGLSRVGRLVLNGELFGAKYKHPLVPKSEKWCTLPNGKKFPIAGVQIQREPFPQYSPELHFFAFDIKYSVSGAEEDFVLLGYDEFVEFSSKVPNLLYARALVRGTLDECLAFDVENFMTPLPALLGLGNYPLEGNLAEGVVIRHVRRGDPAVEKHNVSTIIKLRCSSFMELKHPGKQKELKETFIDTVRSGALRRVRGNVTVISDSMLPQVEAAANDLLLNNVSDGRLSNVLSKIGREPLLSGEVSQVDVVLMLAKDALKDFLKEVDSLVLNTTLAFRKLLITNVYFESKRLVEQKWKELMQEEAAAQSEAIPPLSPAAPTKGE
Assay [11] is described as follows: Dd2 parasite growth inhibition in erythrocytes – SYBR Green, dry powder samples, set 4, dose response (AID 1159572). It counts as functional, cell-based.

The source made the active and inactive calls.

Chain of Vasopressin V1b receptor (P47901 whole entry): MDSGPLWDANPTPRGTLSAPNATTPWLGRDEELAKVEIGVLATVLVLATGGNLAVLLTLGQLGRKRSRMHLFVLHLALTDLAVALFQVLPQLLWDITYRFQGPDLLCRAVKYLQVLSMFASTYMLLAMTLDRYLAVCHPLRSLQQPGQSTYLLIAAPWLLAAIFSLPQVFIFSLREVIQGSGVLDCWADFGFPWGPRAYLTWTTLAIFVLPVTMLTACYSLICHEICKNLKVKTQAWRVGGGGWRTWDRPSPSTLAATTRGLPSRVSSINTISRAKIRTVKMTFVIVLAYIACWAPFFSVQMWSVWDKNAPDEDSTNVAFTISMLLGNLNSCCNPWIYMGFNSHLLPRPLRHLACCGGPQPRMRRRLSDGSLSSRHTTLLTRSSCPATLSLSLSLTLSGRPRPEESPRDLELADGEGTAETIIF
Chain of Vasopressin V2 receptor (P30518 whole entry): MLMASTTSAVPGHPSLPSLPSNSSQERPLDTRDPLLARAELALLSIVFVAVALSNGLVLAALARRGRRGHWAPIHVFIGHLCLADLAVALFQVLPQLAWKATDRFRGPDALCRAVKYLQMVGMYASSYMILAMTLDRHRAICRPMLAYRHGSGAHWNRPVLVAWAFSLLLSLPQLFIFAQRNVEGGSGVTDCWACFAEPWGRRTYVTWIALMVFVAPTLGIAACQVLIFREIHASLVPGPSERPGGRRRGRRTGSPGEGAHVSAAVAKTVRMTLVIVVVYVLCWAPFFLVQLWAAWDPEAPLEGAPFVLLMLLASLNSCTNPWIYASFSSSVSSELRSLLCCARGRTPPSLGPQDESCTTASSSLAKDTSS
Chain of Muscarinic acetylcholine receptor M5 (Rattus norvegicus, UniProt P08911) (P08911 whole entry): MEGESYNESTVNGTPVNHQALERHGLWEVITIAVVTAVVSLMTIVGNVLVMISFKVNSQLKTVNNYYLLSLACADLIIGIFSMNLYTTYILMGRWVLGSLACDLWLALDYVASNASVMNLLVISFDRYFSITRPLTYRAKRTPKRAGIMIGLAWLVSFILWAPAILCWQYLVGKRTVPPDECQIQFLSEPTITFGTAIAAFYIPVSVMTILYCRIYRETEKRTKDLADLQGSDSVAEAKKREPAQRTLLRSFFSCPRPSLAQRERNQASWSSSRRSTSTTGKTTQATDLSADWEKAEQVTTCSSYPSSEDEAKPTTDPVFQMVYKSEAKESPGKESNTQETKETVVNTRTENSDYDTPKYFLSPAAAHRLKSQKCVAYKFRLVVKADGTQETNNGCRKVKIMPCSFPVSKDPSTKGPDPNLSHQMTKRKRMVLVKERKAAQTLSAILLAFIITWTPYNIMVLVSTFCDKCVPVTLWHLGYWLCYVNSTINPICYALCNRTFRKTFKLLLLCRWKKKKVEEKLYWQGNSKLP

Consider `O=C(C1CCN(c2ccc(Cl)cn2)CC1)N(CC1CC1)c1ccc(Cl)cc1`, for which the IC50 was > 50 µM (active) on Vasopressin V1b receptor, > 50 µM (inactive) in [1], 0.04 µM (active) in assay [2] and > 50 µM (inactive) on Vasopressin V2 receptor. Besides, in assay [3], the CC50 was > 25 µM (inactive).

On to `CCCNC(=O)N(C)C[C@@H]1Oc2ncc(C#CC3CCCCC3)cc2C(=O)N([C@H](C)CO)C[C@@H]1C`, for which the AC50 in [4] was 59.7 µM (active).

For the compound `CCN(C(=O)c1cc(COc2cccc(C(C)=O)c2)on1)C(C)c1ccccn1` (stereo not drawn), the IC50 in assay [5] was 5.55 µM (active); in [6], 6.84 µM (active).

With `Cc1noc(C)c1S(=O)(=O)N(C)C[C@@H]1OCCCC[C@@H](C)Oc2ccc(N(C)C)cc2C(=O)N([C@@H](C)CO)C[C@H]1C`, the AC50 in assay [7] is 10.6 µM (active).

On to `COc1cccc(C#Cc2ccc([C@H]3[C@H](CO)N4C(=O)CN(C(=O)Cc5ccccc5)C[C@@H]34)cc2)c1`, for which, in [8], the AC50 was 10.5 µM (active).

Regarding `O=C(/C=C/c1ccc(F)cc1)N1CCN(S(=O)(=O)c2cccs2)CC1`, the IC50 in [9] was 0.081 µM (active).

With `COC(=O)C1=C(C)N(Cc2cccc(C(F)(F)F)c2)C(NCc2ccc3c(c2)OCO3)=NC1c1ccccc1C(F)(F)F` (stereo not drawn), the IC50 in assay [10] was > 96.6 µM (inactive).

Regarding `COc1ccc(NC(=O)N2CCC3(CC2)CN(C(C)=O)[C@@H](CO)c2[nH]c4cc(OC)ccc4c23)cc1`, the AC50 in [11] was 1.73 µM (active).
